The values that follow are results of earlier work, collected in patent US4146613A, “Oral anti-diabetic drug composition” (THERA Gesellschaft fur Patentverwertung mbH, priority 1976, dated 1979).

The test system of the data set is blood sugar.

On to kallikrein, for which the “persistence of blood sugar lowering effect” value (after administering for several days, for example after three days) is “the effect would diminish or disappear”. Besides, where the note is “also if applied orally, Frey et al 1932”, the blood sugar lowering entry is reported as “lower slightly the blood sugar”.
